Reference: patent US10357485B1, “Anti-cancer compound” (KING SAUD UNIVERSITY, priority 2018, dated 2019)
Like-named read-outs stand apart in the source and are kept apart here.

Assays:
Format in all cases: cell-based, human
[1] = tested on: JURKAT cells; assay: FITC Annexin V/PI apoptosis assay by flow cytometry; settings: 48 h of treatment, compound 4 at 10.33 μM
Experimental: To determine whether the antiproliferative effect of compound 4 can trigger cell apoptosis, the percentage of JURKAT cells undergoing apoptosis was determined by flow cytometric analysis after the cells were stained with FITC Annexin V and proidium iodide (PI). […] As depicted in FIGS. 6A-6G, after 48 h of treatment with compound 4, a significant accumulation of AnnexinV^+ was observed, relative to CTP treated cells. 45.21% and 12.54% of cells were determined to be in early apoptosis (AnnexinV^+) when treated with compound 4 and CTP, respectively. Similarly, 46.32% and 14.33% of cells were determined to be in late apoptosis (AnnexinV^+, PI^+) when treated with compound 4 and CTP, respectively. Apoptosis assay was performed using FITC Annexin V Apoptosis Detection Kit I (BD Biosciences, San Jose, Calif., USA). The fluorescence intensities of FITC-conjugated Annexin V and PI in compound 4 treated, control treated and untreated cells were analyzed using flow cytometry. Briefly, JURKAT cells (1×10^6 cells/well) were seeded in a 6-well plate. […] Following trypsinization, cells were centrifuged at 1000×g for 10 min, and the pellet was gently resuspended in 100 μL FITC Annexin V binding buffer and then incubated with 5 μL of FITC Annexin V in the dark for 10 min at 25° C. The cells were then centrifuged at 2000 rpm for 5 min, gently resuspended in 500 μL of FITC Annexin V binding buffer and 5 μL of PI was added in an ice bath, followed by flow cytometry (BD FACS Calibur, San Jose, Calif., USA) the apoptotic cells were analyzed using Cell Quest software.

[2] = tested on: JURKAT cells; assay: MTT cytotoxicity assay on JURKAT cells; settings: for IC50: Homo sapiens, JURKAT cells
Experimental: As described in detail herein, a cytotoxicity assay of compound 4 was performed on four human cancer cell lines—JURKAT, NCI-H460, HCT116 and MCF7—with camptothecin (CPT) as a positive control. The inhibitory effects of compound 4 on JURKAT, NCI-H460, HCT116 and MCF7 cancer cells were determined by an MTT (3-[4,5-dimethylthiazol-2-yl]-2,5 diphenyltetrazolium bromide) assay. The cancer cells were exposed to compound 4 at various concentrations of 1, 5, 10, 15, and 20 μM for different incubation periods of 24 h and 48 h. […] The stock solutions of 1 mM compound 4 and camptothecin (40 μM) were prepared, respectively, in DMSO. Further dilutions of 1, 5, 10, 15, and 20 μM were made in Dulbecco's Modified Eagle's Medium (DMEM) for treatment of cancer cells. MCF-7 (human breast cancer); HCT116 (human colon cancer); NCI-H460 (human non-small lung cancer); and JURKAT (human T-cell lymphoma) cell lines were obtained from the National Centre for Cell Science (NCCS, Pune, India). All cells were cultured in DMEM—except JURKAT cells, which were cultured in RPMI media—and supplemented with 10% fetal bovine serum (HiMedia, India) with penicillin (100 I.U/mL) and streptomycin (100 μg/mL) at 37° C. in a humidified atmosphere of 5% CO2 in air. Cultured cells of 75-85% confluency were used for the assays. Adherent cells were trypsinized, counted and seeded in 96-well plates for viability studies. Cells were allowed to adhere overnight before treatment in the experiments. JURKAT cells were washed with D-PBS, counted and seeded in 96-well plates for viability studies. Cytotoxicity of compound 4 for JURKAT cells was determined by 3-(4,5-dimethylthiazol-2-yl)-2,5-diphenyltetrazolium bromide (MTT) assay. In brief, cells were seeded with different concentrations of compound 4—specifically 1, 5, 10, 15, and 20 μM—in 96 wells plate at a density of 20000 cells per well and incubated for 24 h and 48 h at 37° C., in a CO2 incubator. The MTT assay was performed according to manufacturer instructions and absorbance of the treated and untreated cells were measured in a microplate reader at 570 nm wavelength. Results were represented as percentage of viability={[A570 (treated cells)−background]/[A570 (untreated cells)−background]}×100. Each treatment was performed in triplicate (N=3).

[3] = tested on: JURKAT cells; assay: Mitochondrial membrane potential (ΔΨm) assay, JC-1 staining; settings: 48 h, 10.33 μM
Experimental: Mitochondrial membrane depolarization is an early event in apoptosis. Chemotherapeutic agents usually induce apoptosis via the mitochondrial pathway. Evaluation of the effect of compound 4 treatment on mitochondrial membrane depolarization was determined using flow cytometry after staining with mitochondrial potential-sensitive dye JC-1. […] Mitochondrial membrane potential (ΔΨm) was determined using JC-1, a fluorescent carbocyanine dye (Smiley et al., 1991). Briefly, JURKAT cells (1×10^6 cells/well) were seeded in a 6-well plate. […] Each of the cell pellets were incubated with 2.5 μM JC-1 for 15 min at 37° C. in darkness. Subsequently, stained cells were washed with PBS, followed by FACS analysis (BD FACS Calibur, San Jose, Calif., USA).

[4] = tested on: JURKAT cells; assay: Cell cycle analysis, propidium iodide staining, flow cytometry; settings: 48 h, 10.33 μM
Experimental: Therefore, interruption of cell cycle progression is an important target for cancer treatment. JURKAT cells were treated with compound 4 for 48 h and stained with propidium iodide to determine the proportion of cells undergoing apoptosis or cell death as analyzed by flow cytometry. […] The percentage of compound 4-treated cells decreased in G0/G1 and G2/M phase. […] Checkpoints are the pathways that halt progression of the cell cycle in response to cellular stress. Targeting checkpoint pathways are potential anti-cancer strategies because abrogation of checkpoint function drives tumor cells toward apoptosis and enhances the efficacy of oncotherapy. The cell cycle phase evaluation was performed as described by […] et al. (2007). Jurkat cells were plated at 1×10^6 cells/well in a six-well plate for 12 h and then cells were exposed with compound-4 in serum-free media and incubated for an additional 48 h. […] Following trypsinization, cells were centrifuged at 1000×g for 10 min, and the pellet was resuspended in PBS. Fixation was completed by adding 70% cold ethanol for at least 2 h. The fixed cells were centrifuged at 1000 g for 10 min, and the pellet suspended in PBS. After 60 s, the cells were centrifuged as before, and the pellet resuspended in 1 ml of propidium iodide (PI) staining solution. Immediately after 15 min incubation at 37° C., the cells were analyzed to determine the cell cycle stage using flow cytometry (BD FACS Calibur, San Jose, Calif., USA) with an excitation wavelength of 488 nm and an emission at 670 nm using the Cell Quest software for analysis. The data presented represent at least three independent experiments conducted in triplicate (N=3).

[5] = tested on: JURKAT cells; assay: DNA fragmentation by TUNEL assay; settings: 48 h, 10.33 μM
Source text: DNA fragmentation is a key feature of apoptosis, and is largely due to activation of endogenous endonucleases that induce cleavage of chromatin DNA into internucleosomal fragments of roughly 180 base pairs. Apoptosis can be qualitatively assessed by monitoring DNA fragmentation trends, for instance, using terminal deoxynucleotidyl transferase dUTP nick end labeling (TUNEL) assay. For untreated […] cells, TUNEL assay results indicated a constant base line of TUNEL-positive cells. […] DNA fragmentation was monitored in treated, control treated and untreated JURKAT cells to identify stages of apoptosis. […] Supernatant and adherent cells were collected in a centrifuge tube and then washed twice with PBS. The cells were fixed with 70% ice-cold ethanol by incubating at -20° C. for 30 min. The fixed cells were resuspended in wash buffer, and then washed twice by centrifugation. 50 μl of DNA labeling solution was added to each cell pellet. The cell pellets were incubated with the DNA labeling solution at 37° C. for 60 min. The cell pellets were rinsed with rinse buffer and then resuspended with 0.5 ml of PI/RNase Staining Buffer and incubated for 30 min at RT. Flow cytometry was performed to detect DNA fragmentation (BD FACS Calibur, San Jose, Calif., USA).

[6] = tested on: MCF7 cells; assay: MTT cytotoxicity assay on MCF7 cells; settings: MCF7, 1-20 μM, 24 and 48 hours
Experimental: (§1) As described in detail herein, a cytotoxicity assay of compound 4 was performed on four human cancer cell lines—JURKAT, NCI-H460, HCT116 and MCF7—with camptothecin (CPT) as a positive control. The inhibitory effects of compound 4 on JURKAT, NCI-H460, HCT116 and MCF7 cancer cells were determined by an MTT (3-[4,5-dimethylthiazol-2-yl]-2,5 diphenyltetrazolium bromide) assay. The cancer cells were exposed to compound 4 at various concentrations of 1, 5, 10, 15, and 20 μM for different incubation periods of 24 h and 48 h. […] The stock solutions of 1 mM compound 4 and camptothecin (40 μM) were prepared, respectively, in DMSO. Further dilutions of 1, 5, 10, 15, and 20 μM were made in Dulbecco's Modified Eagle's Medium (DMEM) for treatment of cancer cells. […] Adherent cells were trypsinized, counted and seeded in 96-well plates for viability studies. […] JURKAT cells were washed with D-PBS, counted and seeded in 96-well plates for viability studies. Cytotoxicity of compound 4 for JURKAT cells was determined by 3-(4,5-dimethylthiazol-2-yl)-2,5-diphenyltetrazolium bromide (MTT) assay. […] The MTT assay was performed according to manufacturer instructions and absorbance of the treated and untreated cells were measured in a microplate reader at 570 nm wavelength. […]

[7] = tested on: HCT116 cells; assay: MTT cytotoxicity assay on HCT116 cells; settings: HCT116, 1-20 μM, 24 and 48 hours
Experimental: as §1

[8] = tested on: Caspase-3 in JURKAT cells; assay: Caspase-3 expression assay, FITC staining, flow cytometry; settings: 48 h, 10.33 μM, CPT 40 μM
Experimental: Caspase-3 expression was measured using FITC staining. […] Apoptotic caspases are believed to be activated in a protease cascade in which the activated apical caspases responding to apoptotic stimuli directly activate the executioner (effector) caspases in a precisely controlled process. Among these effector caspases, caspase-3, a member of the cysteine protease family, plays a central role in the execution phase of both intrinsic (mitochondrial) and extrinsic (death receptor) pathways of apoptosis by cleaving many key cellular proteins, such as poly (ADP ribose) polymerase (PARP), inhibitor of caspase-activated DNase (ICAD), and several others. Briefly, JURKAT cells (1×10^6 cells/well) were seeded in a 6-well plate. […] The JURKAT cells were harvested and then fixed with 70% ice-cold ethanol followed by incubation at −20° C. for 30 min. The fixed JURKAT cells were washed twice with PBS and treated with 20 μl of Caspase-3-FITC (BD Biosciences) and incubated for 60 min at room temperature in dark conditions. Cells were washed with PBS and resuspended in 0.5 ml of PBS, before analysis for Caspase-3 expression using BD FACS Callibur (San Jose, Calif., USA).

[9] = tested on: NCI-H460 cells; assay: MTT cytotoxicity assay on NCI-H460 cells; settings: NCI-H460, 1-20 μM, 24 and 48 hours
Experimental: as §1

| Structure (SMILES) | cells in early apoptosis (AnnexinV+) [1] | cells in late apoptosis (AnnexinV+, PI+) [1] | IC50 ([2]; given as treatment concentration, time not stated, read-out: IC50 of CPT as stated in the methods) | mitochondrial membrane potential (ΔΨm) compared to control (untreated) cells [3] | percentage of cells in G0/G1 phase [4] | percentage of cells in G2/M phase [4] | percentage of cells in S phase compared to untreated cells [4] | percentage of cells in sub G0/G1 phase compared to untreated cells [4] | number of TUNEL-positive cells compared with untreated or control cells [5] | DNA fragmentation relative to CTP (control) treated cells ([5]; CPT 40 μM) | Proliferation of the cancer cells [6] | Proliferation of the cancer cells [7] | IC50 ([2]; MTT, 24 h, read-out: IC50 (half maximal inhibitory concentration)) | IC50 ([2]; MTT, 48 h, read-out: IC50 (half maximal inhibitory concentration)) | Proliferation of the cancer cells ([2]; JURKAT, 1-20 μM, 24 and 48 hours) | Inhibition compared to positive control CPT (40 μM) ([2]; compound 4 at 15 μM and 20 μM) | caspase-3 expression compared with CPT control treated cells [8] | Proliferation of the cancer cells [9] |
| --- | --- | --- | --- | --- | --- | --- | --- | --- | --- | --- | --- | --- | --- | --- | --- | --- | --- | --- |
| CC[C@@]1(O)C(=O)OCc2c1cc1n(c2=O)Cc2cc3ccccc3nc2-1 [CPT, camptothecin, reference compound] | 12.54% | 14.33% | 40 µM | – | – | – | – | – | – | – | – | – | – | – | – | – | – | – |
| O=C1/C(=C/c2ccc(Br)cc2)CN2CC13C(c1ccc(Br)cc1)C1Cc4ccccc4CN1C31c3cccc4cccc(c34)[C@@]21O (some centres unmarked) [compound 4] | 45.21% | 46.32% | – | Significant decrease | decreased | decreased | significantly increased | moderately increased | significant increase | increased DNA fragmentation | significantly inhibited in a concentration-dependent manner | significantly inhibited in a concentration-dependent manner | 15.6 µM | 10.3 µM | significantly inhibited in a concentration-dependent manner | higher inhibition | higher caspase-3 expression | significantly inhibited in a concentration-dependent manner |
